Test results as given in ChEMBL document CHEMBL3244216, “Chemical modification of 1,4-diamino-1,4-dideoxy-3-O-(4-deoxy-4-propionamido-alpha-D-glucopyranosyl)-D-glucitol” (1978).
Converted amounts (≈) assume the structure as drawn. The source made the active and inactive calls. No cut-off for these calls is given here.

How the values were obtained:
Staphylococcus aureus [1] = experiment: Antibacterial activity against streptomycin, neomycin, kanamycin-resistant Staphylococcus aureus 2314 assessed as growth inhibition by agar dilution method; type: functional
Escherichia coli [2] = experiment: Antibacterial activity against streptomycin, neomycin, kanamycin, gentamicin-resistant Escherichia coli 2964 assessed as growth inhibition by agar dilution method; type: functional
Pseudomonas aeruginosa [3] = experiment: Antibacterial activity against kanamycin and gentamicin-resistant Pseudomonas aeruginosa 3033 assessed as growth inhibition by agar dilution method; type: functional
Klebsiella [4] = experiment: Antibacterial activity against drug-sensitive Klebsiella 2921 assessed as growth inhibition by agar dilution method; type: functional
Escherichia coli [5] = experiment: Antibacterial activity against drug-sensitive Escherichia coli 2482 assessed as growth inhibition by agar dilution method; type: functional; set-up: unit not given here
Salmonella [6] = experiment: Antibacterial activity against drug-sensitive Salmonella 1287 assessed as growth inhibition at => 200 ul/ml by agar dilution method; type: functional, organism-based
Proteus vulgaris [7] = experiment: Antibacterial activity against drug-sensitive Proteus vulgaris 838 assessed as growth inhibition by agar dilution method; type: functional; set-up: unit not given here
Pseudomonas aeruginosa [8] = experiment: Antibacterial activity against Pseudomonas aeruginosa 2956 assessed as growth inhibition by agar dilution method; type: functional; set-up: unit not given here
Enterococcus faecalis [9] = experiment: Antibacterial activity against Streptococcus faecalis 755 assessed as growth inhibition at => 200 ul/ml by agar dilution method; type: functional, organism-based
Escherichia coli [10] = experiment: Antibacterial activity against drug-sensitive Escherichia coli 60 assessed as growth inhibition by agar dilution method; type: functional; set-up: unit not given here
Staphylococcus aureus [11] = experiment: Antibacterial activity against streptomycin, neomycin, kanamycin-resistant Staphylococcus aureus 2314 assessed as growth inhibition at => 200 ul/ml by agar dilution method; type: functional, organism-based
Serratia [12] = experiment: Antibacterial activity against pigmented Serratia 155 assessed as growth inhibition by agar dilution method; type: functional; set-up: unit not given here
Proteus vulgaris [13] = experiment: Antibacterial activity against drug-sensitive Proteus vulgaris 838 assessed as growth inhibition at => 200 ul/ml by agar dilution method; type: functional, organism-based
Pseudomonas aeruginosa [14] = experiment: Antibacterial activity against Pseudomonas aeruginosa 2956 assessed as growth inhibition at => 200 ul/ml by agar dilution method; type: functional, organism-based
Serratia [15] = experiment: Antibacterial activity against unpigmented Serratia 2840 assessed as growth inhibition by agar dilution method; type: functional; set-up: unit not given here
Staphylococcus aureus [16] = experiment: Antibacterial activity against Staphylococcus aureus 210 assessed as growth inhibition by agar dilution method; type: functional; set-up: unit not given here
Salmonella [17] = experiment: Antibacterial activity against drug-sensitive Salmonella 1287 assessed as growth inhibition by agar dilution method; type: functional; set-up: unit not given here
Staphylococcus aureus [18] = experiment: Antibacterial activity against drug-sensitive Staphylococcus aureus 2985 assessed as growth inhibition by agar dilution method; type: functional; set-up: unit not given here
Erwinia = experiment: Antibacterial activity against drug-sensitive Erwinia 1159 assessed as growth inhibition by agar dilution method; type: functional; set-up: unit not given here
Bacillus subtilis = experiment: Antibacterial activity against drug-sensitive Bacillus subtilis 964 assessed as growth inhibition by agar dilution method; type: functional; set-up: unit not given here
Pseudomonas aeruginosa [19] = experiment: Antibacterial activity against kanamycin and gentamicin-resistant Pseudomonas aeruginosa 3033 assessed as growth inhibition at => 200 ul/ml by agar dilution method; type: functional, organism-based
Enterococcus faecalis [20] = experiment: Antibacterial activity against Streptococcus faecalis 755 assessed as growth inhibition by agar dilution method; type: functional; set-up: unit not given here
Klebsiella [21] = experiment: Antibacterial activity against drug-sensitive Klebsiella 2921 assessed as growth inhibition at => 200 ul/ml by agar dilution method; type: functional, organism-based
Brucella [22] = experiment: Antibacterial activity against drug-sensitive Brucella 965 assessed as growth inhibition by agar dilution method; type: functional; set-up: unit not given here
Proteus vulgaris [23] = experiment: Antibacterial activity against drug-sensitive Proteus vulgaris 838 assessed as growth inhibition at => 100 ul/ml by agar dilution method; type: functional, organism-based
Brucella [24] = experiment: Antibacterial activity against drug-sensitive Brucella 965 assessed as growth inhibition at => 200 ul/ml by agar dilution method; type: functional

Compound	MIC (Staphylococcus aureus [1]) [µg/mL]	MIC (Pseudomonas aeruginosa [3]) [µg/mL]	MIC (Klebsiella [4]) [uL/ml]	MIC (Escherichia coli [5])	MIC (Proteus vulgaris [7])	MIC (Pseudomonas aeruginosa [8])	growth inhibition (GI) (Enterococcus faecalis [9])	MIC (Escherichia coli [10])	MIC (Serratia [12])	growth inhibition (GI) (Pseudomonas aeruginosa [14])	MIC (Serratia [15])	MIC (Staphylococcus aureus [16])	MIC (Salmonella [17])	MIC (Staphylococcus aureus [18])	MIC (Erwinia)	MIC (Bacillus subtilis)	MIC (Enterococcus faecalis [20])	MIC (Brucella [22])	further results
NC[C@H]1O[C@H](O[C@H]2[C@H](O)[C@@H](O[C@H]3O[C@H](CO)[C@@H](O)[C@H](N)[C@H]3O)[C@H](N)C[C@@H]2N)[C@H](O)[C@@H](O)[C@@H]1O [KANAMYCIN]	> 100	100 (≈ 206 µM)																	MIC (Escherichia coli [2]): 100 µg/mL (≈ 206 µM)
CCCC(=O)N[C@H]1[C@H](O)[C@@H](O)[C@@H](O[C@@H]([C@H](N)[C@H](O)CO)[C@@H](O)CN)O[C@@H]1CO			200	200	200	200	inactive	200	>200	inactive	200	200	200	200	>200	100	200		growth inhibition (GI) (Salmonella [6]): inactive; growth inhibition (GI) (Staphylococcus aureus [11]): inactive; growth inhibition (GI) (Proteus vulgaris [13]): inactive; growth inhibition (GI) (Pseudomonas aeruginosa [19]): inactive
CCCN[C@H]1[C@H](O)[C@@H](O)[C@@H](O[C@@H]([C@H](N)[C@H](O)CO)[C@@H](O)CN)O[C@@H]1CO	100 (≈ 261 µM)	> 200	200	200	200	200	inactive	200		inactive	200	50	100	50		50	200	200	growth inhibition (GI) (Klebsiella [21]): inactive; growth inhibition (GI) (Proteus vulgaris [23]): inactive
CC(=O)N[C@H]1[C@H](O)[C@@H](O)[C@@H](O[C@@H]([C@H](N)[C@H](O)CO)[C@@H](O)CN)O[C@@H]1CO	> 200	> 200		100	200			200	>200		>200	200	200	200	100	100	>200	200	growth inhibition (GI) (Brucella [24]): inactive
CCC(=O)N[C@H]1[C@H](O)[C@@H](O)[C@@H](O[C@@H]([C@H](N)[C@H](O)CO)[C@@H](O)CN)O[C@@H]1CCl	200 (≈ 481 µM)		50	100	200	100		100	200		100	50	50	50	>25	50	200	100	
CCC(=O)N[C@H]1[C@H](O)[C@@H](O)[C@@H](O[C@@H]([C@H](N)[C@H](O)CO)[C@@H](O)CN)O[C@@H]1CO	200 (≈ 503 µM)	100 (≈ 252 µM)		50	100	50		50	>200		200	50	<3.1	100	<3.1	50	200	100	
